Here are results for eleven compounds from ChEMBL document CHEMBL5465560, “Selectivity Literature for EUbOPEN Chemogenomic Library” (2024).

The target of assay [1] is Tyrosine-protein kinase receptor UFO (Homo sapiens) (UniProt P30530). As to the kind of experiment: Selectivity interaction (Upstate Kinase Profiler service (Millipore)) EUB0000056c AXL. Conditions: at 1 µM.
Assay [2] concerns the target T1, Serine/threonine-protein kinase LATS1 (Homo sapiens) (UniProt O95835).
T1 sequence (whole entry): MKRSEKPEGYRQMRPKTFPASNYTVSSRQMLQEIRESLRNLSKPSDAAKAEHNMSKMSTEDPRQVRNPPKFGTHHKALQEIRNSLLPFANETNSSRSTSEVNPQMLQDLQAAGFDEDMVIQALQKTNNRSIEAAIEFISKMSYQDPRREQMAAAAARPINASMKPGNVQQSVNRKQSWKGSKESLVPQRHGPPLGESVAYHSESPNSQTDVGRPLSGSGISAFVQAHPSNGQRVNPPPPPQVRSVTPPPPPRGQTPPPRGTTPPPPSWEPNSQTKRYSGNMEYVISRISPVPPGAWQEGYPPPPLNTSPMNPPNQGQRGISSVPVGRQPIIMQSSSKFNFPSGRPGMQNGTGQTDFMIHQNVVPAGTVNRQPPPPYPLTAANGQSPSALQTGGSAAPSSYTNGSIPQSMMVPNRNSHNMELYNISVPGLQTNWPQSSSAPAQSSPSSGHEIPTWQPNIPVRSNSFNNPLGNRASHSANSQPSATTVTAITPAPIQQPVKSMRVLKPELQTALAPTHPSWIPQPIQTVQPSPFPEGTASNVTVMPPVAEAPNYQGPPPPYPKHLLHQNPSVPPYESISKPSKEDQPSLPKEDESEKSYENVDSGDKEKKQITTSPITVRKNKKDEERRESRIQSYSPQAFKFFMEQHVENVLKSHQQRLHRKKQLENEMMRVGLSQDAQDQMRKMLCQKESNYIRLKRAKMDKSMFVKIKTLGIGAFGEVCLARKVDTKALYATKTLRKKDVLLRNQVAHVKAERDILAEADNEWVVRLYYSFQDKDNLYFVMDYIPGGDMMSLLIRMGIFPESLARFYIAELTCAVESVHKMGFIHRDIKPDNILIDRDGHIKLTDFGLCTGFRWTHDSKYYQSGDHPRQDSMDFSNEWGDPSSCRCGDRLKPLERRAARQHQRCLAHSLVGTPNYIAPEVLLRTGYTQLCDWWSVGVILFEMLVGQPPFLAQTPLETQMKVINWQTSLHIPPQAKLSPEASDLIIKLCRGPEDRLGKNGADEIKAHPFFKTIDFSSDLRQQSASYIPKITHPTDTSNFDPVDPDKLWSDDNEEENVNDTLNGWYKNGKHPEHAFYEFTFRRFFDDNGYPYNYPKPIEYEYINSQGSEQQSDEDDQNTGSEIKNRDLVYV
The note with it: at 10 µM.

In assay [3] the target is Interleukin-1 receptor-associated kinase 1 (Homo sapiens) (UniProt P51617). As to the kind of experiment: Selectivity interaction (KinomeScan (DiscoverX)) EUB0000092b IRAK1. Conditions: at 10 µM.
Assay [4] deals with T2, Aurora kinase C (Homo sapiens) (UniProt Q9UQB9).
T2 sequence (whole entry): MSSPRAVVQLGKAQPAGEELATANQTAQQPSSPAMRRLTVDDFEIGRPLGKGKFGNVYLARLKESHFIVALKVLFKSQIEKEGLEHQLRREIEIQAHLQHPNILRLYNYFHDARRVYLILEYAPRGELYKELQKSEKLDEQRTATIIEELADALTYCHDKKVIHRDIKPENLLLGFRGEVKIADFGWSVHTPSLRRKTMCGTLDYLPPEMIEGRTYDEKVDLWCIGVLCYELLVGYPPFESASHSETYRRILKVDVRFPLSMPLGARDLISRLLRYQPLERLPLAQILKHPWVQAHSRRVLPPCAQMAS
As to the kind of experiment: Selectivity interaction (KinomeScan (DiscoverX)) EUB0001049a AURKC. The note with it: at 1 µM.

The target in assay [5] is Serine/threonine-protein kinase Nek7 (Homo sapiens) (UniProt Q8TDX7). The experiment in a line: Selectivity interaction (KinomeScan (DiscoverX)) EUB0000666a NEK7. Conditions: at 10 µM.
Assay [6] addresses T3, Tyrosine-protein kinase Tec (Homo sapiens) (UniProt P42680).
T3 sequence (whole entry): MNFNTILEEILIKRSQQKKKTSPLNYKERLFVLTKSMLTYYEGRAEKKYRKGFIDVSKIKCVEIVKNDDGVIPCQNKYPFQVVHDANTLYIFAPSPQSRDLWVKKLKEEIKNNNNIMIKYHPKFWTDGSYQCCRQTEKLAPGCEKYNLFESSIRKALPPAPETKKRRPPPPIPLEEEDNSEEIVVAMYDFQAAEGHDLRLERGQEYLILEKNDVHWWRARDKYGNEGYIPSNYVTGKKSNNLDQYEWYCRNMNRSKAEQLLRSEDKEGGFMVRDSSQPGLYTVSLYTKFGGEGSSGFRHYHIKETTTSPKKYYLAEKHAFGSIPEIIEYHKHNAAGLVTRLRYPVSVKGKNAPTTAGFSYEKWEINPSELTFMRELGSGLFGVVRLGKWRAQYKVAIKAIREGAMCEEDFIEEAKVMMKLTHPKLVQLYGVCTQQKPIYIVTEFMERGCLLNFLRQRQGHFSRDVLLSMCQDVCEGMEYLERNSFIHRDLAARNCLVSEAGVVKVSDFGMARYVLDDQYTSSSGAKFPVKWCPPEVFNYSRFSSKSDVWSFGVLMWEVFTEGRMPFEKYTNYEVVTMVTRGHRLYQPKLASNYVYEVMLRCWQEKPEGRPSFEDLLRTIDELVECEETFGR
As to the kind of experiment: Selectivity interaction (LanthaScreen Eu Kinase Binding Assay) EUB0001632a TEC. The note with it: at 10 µM. (TR-FRET usually uses a lanthanide donor and a delayed reading to cut background.)

The target of assay [7] is Wee1-like protein kinase (Homo sapiens) (UniProt P30291). As to the kind of experiment: Selectivity interaction (KinomeScan (DiscoverX)) EUB0000607a WEE1. Conditions: at 10 µM.
Assay [8] concerns the target Tyrosine-protein kinase Lyn (Homo sapiens, UniProt P07948). As to the kind of experiment: Selectivity interaction (ActivX KiNativ screen (kinase selectivity in THP-1 cell lysates)) EUB0000639a LYN. The format is subcellular. The note with it: lysate, at 0.01 µM.
In assay [9] the target is Mitogen-activated protein kinase kinase kinase 8 (Homo sapiens, UniProt P41279). As to the kind of experiment: Selectivity interaction (Kinase panel (33PanQinase(R) Activity Assay)) EUB0000877a MAP3K8.
Assay [10] concerns the target Nuclear receptor subfamily 1 group I member 2 (Homo sapiens, UniProt O75469). The experiment in a line: Selectivity interaction (PXR Receptor agonist/antagonist assay: TR-FRET human recombinant ) EUB0000877a NR1I2.
The target in assay [11] is Cyclin-dependent kinase 11B (Homo sapiens) (UniProt P21127). The experiment in a line: Selectivity interaction (KinomeScan (DiscoverX)) EUB0000595a CDK11B. The note with it: at 10 µM.
Assay [12] concerns the target 5-hydroxytryptamine receptor 1B (Homo sapiens) (UniProt P28222). As to the kind of experiment: Selectivity interaction (Safety Panel 44tm (Eurofins)) EUB0000162b HTR1B. Conditions: at 10 µM.

Tyrosine-protein kinase receptor UFO (Homo sapiens), sequence (P30530 whole entry): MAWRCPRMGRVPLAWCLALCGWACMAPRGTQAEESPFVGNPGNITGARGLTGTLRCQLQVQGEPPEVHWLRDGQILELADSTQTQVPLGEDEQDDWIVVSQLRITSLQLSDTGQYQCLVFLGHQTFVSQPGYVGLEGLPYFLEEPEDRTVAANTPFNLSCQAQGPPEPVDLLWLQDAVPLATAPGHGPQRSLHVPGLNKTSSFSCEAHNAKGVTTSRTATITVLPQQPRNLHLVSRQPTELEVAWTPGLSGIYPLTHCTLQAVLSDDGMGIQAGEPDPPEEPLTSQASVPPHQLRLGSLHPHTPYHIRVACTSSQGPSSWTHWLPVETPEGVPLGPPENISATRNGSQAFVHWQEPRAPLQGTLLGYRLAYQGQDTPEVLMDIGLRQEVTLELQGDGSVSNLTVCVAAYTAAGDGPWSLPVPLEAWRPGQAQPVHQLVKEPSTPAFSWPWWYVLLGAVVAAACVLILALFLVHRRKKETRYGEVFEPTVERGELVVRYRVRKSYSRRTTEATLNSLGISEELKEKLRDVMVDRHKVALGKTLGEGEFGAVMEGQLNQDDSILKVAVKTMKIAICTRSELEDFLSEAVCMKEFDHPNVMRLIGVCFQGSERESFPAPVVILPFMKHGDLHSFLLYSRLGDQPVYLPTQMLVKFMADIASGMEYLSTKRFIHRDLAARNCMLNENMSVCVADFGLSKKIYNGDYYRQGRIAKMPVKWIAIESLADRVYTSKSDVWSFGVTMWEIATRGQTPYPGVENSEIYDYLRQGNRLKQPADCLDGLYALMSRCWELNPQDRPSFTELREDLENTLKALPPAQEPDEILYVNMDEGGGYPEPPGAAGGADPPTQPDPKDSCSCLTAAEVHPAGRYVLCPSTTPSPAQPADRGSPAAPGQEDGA
Mitogen-activated protein kinase kinase kinase 8, sequence (P41279 whole entry): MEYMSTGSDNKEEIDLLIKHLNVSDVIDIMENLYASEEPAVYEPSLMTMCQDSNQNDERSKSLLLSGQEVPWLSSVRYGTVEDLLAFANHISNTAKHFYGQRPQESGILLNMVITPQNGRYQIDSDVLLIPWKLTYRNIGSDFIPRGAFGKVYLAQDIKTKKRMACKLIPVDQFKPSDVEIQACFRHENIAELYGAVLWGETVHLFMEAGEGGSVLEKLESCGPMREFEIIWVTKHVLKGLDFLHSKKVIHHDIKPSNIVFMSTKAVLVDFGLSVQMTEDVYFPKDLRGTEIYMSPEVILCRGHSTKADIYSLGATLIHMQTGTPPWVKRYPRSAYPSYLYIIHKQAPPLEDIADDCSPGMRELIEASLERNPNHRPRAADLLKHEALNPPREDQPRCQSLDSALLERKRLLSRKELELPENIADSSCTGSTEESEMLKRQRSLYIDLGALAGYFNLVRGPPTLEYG
Tyrosine-protein kinase Lyn, sequence (P07948 2-512 limits assumed): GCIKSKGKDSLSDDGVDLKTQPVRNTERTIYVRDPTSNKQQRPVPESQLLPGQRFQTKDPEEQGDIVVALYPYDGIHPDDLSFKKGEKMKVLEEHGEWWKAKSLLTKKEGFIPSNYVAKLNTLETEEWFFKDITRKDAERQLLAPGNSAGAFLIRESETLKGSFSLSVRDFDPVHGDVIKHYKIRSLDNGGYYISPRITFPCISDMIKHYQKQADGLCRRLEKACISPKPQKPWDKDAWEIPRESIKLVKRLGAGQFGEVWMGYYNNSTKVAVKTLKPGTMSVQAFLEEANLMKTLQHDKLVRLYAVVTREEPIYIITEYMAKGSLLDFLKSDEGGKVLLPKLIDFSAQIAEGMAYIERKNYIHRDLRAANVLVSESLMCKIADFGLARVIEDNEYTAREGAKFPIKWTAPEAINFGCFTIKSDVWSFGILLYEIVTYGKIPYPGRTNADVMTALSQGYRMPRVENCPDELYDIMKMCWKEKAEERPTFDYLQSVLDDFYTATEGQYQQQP
5-hydroxytryptamine receptor 1B (Homo sapiens), sequence (P28222 whole entry): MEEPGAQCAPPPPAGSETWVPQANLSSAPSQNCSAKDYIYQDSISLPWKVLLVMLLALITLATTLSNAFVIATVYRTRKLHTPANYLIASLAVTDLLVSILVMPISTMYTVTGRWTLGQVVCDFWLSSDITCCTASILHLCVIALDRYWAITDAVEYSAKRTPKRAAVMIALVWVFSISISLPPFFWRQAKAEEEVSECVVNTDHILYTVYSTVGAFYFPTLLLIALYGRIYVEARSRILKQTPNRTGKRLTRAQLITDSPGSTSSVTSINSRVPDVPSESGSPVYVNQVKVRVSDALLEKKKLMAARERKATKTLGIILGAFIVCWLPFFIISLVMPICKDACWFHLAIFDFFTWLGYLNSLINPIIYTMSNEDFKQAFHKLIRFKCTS
Interleukin-1 receptor-associated kinase 1 (Homo sapiens), sequence (P51617 whole entry, looked up): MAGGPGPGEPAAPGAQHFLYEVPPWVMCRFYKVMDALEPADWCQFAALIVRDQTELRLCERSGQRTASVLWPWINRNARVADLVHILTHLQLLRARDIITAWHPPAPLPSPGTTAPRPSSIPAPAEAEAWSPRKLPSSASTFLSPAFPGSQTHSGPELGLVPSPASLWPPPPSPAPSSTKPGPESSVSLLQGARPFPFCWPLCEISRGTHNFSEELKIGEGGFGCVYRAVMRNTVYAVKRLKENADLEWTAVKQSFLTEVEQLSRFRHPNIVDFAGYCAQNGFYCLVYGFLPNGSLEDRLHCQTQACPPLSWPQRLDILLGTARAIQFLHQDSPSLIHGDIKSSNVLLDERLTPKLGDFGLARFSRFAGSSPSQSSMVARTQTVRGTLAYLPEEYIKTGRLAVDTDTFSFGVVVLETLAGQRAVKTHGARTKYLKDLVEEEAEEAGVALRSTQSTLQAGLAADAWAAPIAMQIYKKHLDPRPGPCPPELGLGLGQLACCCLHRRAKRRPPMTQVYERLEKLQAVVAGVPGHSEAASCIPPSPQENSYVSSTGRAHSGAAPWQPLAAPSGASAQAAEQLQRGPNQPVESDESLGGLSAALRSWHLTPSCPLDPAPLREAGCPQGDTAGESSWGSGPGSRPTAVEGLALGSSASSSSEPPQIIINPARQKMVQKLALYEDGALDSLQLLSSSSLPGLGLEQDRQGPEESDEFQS
Wee1-like protein kinase (Homo sapiens), sequence (P30291 whole entry, looked up): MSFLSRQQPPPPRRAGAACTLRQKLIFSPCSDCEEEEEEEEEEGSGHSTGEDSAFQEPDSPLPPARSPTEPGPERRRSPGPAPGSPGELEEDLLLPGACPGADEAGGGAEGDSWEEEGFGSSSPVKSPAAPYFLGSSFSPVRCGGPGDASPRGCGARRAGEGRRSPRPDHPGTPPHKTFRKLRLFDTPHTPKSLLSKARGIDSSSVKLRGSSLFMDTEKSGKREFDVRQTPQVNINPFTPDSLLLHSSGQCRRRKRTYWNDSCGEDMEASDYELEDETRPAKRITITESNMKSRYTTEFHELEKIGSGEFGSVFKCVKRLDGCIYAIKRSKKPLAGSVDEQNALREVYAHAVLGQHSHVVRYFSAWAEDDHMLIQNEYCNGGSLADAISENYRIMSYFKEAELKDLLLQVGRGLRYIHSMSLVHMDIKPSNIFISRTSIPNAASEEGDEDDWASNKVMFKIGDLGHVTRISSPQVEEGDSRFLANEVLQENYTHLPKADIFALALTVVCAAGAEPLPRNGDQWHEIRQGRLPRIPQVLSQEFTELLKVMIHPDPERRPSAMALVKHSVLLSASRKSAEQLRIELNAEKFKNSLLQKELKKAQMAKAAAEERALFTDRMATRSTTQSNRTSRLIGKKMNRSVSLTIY
Serine/threonine-protein kinase Nek7 (Homo sapiens), sequence (Q8TDX7 whole entry, looked up): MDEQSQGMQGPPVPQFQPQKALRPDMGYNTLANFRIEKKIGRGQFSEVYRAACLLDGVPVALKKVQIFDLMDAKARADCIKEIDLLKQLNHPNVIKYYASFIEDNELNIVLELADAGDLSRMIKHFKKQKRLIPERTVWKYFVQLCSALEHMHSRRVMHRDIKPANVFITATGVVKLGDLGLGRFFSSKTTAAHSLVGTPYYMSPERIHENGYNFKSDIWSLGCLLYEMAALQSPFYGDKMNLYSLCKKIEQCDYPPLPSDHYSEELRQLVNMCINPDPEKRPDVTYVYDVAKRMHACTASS
Cyclin-dependent kinase 11B (Homo sapiens), sequence (P21127 whole entry): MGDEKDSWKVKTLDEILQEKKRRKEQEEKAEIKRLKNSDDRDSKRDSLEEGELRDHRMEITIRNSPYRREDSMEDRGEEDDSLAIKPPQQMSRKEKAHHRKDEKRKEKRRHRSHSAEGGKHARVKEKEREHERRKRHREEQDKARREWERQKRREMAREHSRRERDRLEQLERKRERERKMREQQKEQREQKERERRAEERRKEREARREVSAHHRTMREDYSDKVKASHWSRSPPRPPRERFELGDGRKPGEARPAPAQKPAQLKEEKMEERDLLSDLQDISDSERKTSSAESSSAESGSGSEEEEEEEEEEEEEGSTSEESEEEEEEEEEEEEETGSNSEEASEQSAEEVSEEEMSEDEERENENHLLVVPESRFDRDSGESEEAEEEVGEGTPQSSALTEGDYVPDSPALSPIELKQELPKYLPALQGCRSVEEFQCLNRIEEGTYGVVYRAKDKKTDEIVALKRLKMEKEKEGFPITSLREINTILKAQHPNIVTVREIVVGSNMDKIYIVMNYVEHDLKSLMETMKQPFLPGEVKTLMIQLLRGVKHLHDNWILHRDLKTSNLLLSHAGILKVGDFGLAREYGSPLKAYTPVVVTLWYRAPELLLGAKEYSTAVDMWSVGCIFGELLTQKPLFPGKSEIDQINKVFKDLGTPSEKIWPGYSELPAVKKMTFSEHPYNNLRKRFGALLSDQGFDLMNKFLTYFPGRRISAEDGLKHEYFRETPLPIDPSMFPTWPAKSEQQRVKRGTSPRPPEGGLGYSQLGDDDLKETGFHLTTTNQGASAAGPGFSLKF

Regarding `Cc1ccc(-c2ccc3c(ccc4sc5c(c43)NC[C@@H](C)NC5=O)n2)cn1`, the % of inhibition in [1] is 58%. As to `Cc1cc([C@@H](C)Nc2ccccc2C(=O)O)c2nc(N3CCOCC3)cc(=O)n2c1` [AZD-6482], the % of control in assay [2] was determined as 100%. In the case of `CCC(=O)N1CCN(c2ccc(-n3c(=O)ccc4cnc5ccc(-c6cnc7ccccc7c6)cc5c43)cc2C(F)(F)F)CC1`, in assay [3], the % of control is 100%.

Turning to `COc1cc(Nc2nc(C)cc(-c3cnn4nc(OC)ccc34)n2)cc(C(F)(F)F)c1`, in assay [4], the % of control was 84%. As to `O=C(NOC[C@H](O)CO)c1ccc(F)c(F)c1Nc1ccc(I)cc1F`, the % of control in assay [5] turned out to be 95%.

As for `Cn1cc(-n2cnc3c(NCc4nc5cc(Cl)c(Cl)cc5[nH]4)nc(N4CCOCC4)nc32)cn1`, in [6], the % of inhibition was -15.6%.

Compound `CNC(=O)Nc1ccc(-c2nc(N3CC4CCC(C3)O4)c3cnn(C4CCC5(CC4)OCCO5)c3n2)cc1` gave a % of control in assay [7] of 79%. Turning to `CC[C@@H]1[C@H](F)C(=O)N[C@@H]1COc1nccc2cc(C(N)=O)c(OC)cc12` [ZIMLOVISERTIB], the % of inhibition in assay [8] was found to be 5.3%. In general, IC50 refers to the concentration that inhibits the measured activity by half. `CCC(=O)N1CC[C@H](Nc2ncnc3c2CN(c2cnc(OC)c(C(F)(F)F)c2)CC3)C1` [LENIOLISIB]: the IC50 was greater than 10 µM in assay [9] and greater than 30 µM in assay [10]. `COCC(=O)NC/C=C/c1ccc2ncnc(Nc3ccc(Oc4ccc(C)nc4)c(C)c3)c2c1` [CP-724714] returned a % of control in assay [11] of 100%.

On to `CN(C)C(=O)Cn1cc(-c2ccc(-c3cncc4ccccc34)cc2)cn1`, for which, in assay [12], the % of control was 53%.
